Experimental data reported in ChEMBL document CHEMBL1909046, “DrugMatrix in vitro pharmacology data”.

Legend:
[1] = DRUGMATRIX: beta-Lactamase enzyme inhibition (substrate: Nitrocefin); set-up: species or system Bacillus cereus; conditions: Not Active = under 50% inhibition at 10 µM
[2] = target: T1, Endothelin-1 receptor (Homo sapiens, UniProt P25101); format: cell membranes, CHO-K1, Membrane; conditions: cho-k1; further: in other assays of this panel Not Active means under 50% inhibition at 10 µM
T1 sequence (P25101 whole entry): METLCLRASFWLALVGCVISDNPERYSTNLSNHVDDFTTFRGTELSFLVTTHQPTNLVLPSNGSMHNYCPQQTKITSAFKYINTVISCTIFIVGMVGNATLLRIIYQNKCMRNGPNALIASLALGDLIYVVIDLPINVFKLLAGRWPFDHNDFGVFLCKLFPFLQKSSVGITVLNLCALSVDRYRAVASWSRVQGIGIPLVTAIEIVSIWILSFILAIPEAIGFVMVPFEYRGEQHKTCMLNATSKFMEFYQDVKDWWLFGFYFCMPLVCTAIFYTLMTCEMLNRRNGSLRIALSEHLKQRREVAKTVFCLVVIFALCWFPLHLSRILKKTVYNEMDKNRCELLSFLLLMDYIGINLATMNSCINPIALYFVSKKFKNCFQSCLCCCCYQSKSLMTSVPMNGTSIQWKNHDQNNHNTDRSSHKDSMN

[3] = DRUGMATRIX: Glutamate, AMPA radioligand binding (ligand: [3H] AMPA); format: cell membranes, Rattus norvegicus, Wistar, Cerebral cortex, Membrane; conditions: Not Active = under 50% inhibition at 10 µM
[4] = target: Insulin receptor (Rattus norvegicus, UniProt P15127); format: cell membranes, Wistar, Liver, Membrane; further: in other assays of this panel Not Active means under 50% inhibition at 10 µM
[5] = DRUGMATRIX: Interleukin IL-1 radioligand binding (ligand: [125I] interleukin 1beta); format: cell membranes, Membrane; conditions: nih3t3; Not Active = under 50% inhibition at 10 µM
[6] = DRUGMATRIX: Leukotriene, BLT (LTB4) radioligand binding (ligand: [3H]LTB4); format: cell membranes, Membrane; conditions: u-937; Not Active = under 50% inhibition at 10 µM
[7] = target: T2, Caspase-1 (Homo sapiens, UniProt P29466); set-up: species or system Escherichia coli;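 further: Caspase-1 enzyme inhibition assay with a peptide substrate; in other assays of this panel Not Active means under 50% inhibition at 10 µM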
T2 sequence (P29466 whole entry): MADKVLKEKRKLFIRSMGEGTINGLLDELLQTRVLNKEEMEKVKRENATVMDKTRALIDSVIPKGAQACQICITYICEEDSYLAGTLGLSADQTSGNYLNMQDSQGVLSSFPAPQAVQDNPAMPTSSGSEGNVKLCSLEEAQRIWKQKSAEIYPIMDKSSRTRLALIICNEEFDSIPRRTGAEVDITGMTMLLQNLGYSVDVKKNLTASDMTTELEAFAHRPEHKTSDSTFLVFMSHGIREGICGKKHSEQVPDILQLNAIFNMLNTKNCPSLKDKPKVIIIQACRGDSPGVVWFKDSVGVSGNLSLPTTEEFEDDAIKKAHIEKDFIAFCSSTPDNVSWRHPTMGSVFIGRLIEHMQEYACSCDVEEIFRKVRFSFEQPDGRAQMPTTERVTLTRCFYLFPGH

[8] = target: Cytochrome P450 2D6 (Homo sapiens, UniProt P10635); conditions: bti-tn-5b1-4; further: in other assays of this panel Not Active means under 50% inhibition at 10 µM
[9] = target: Voltage-gated inwardly rectifying potassium channel KCNH2 (Homo sapiens, UniProt Q12809); conditions: hek293; further: in other assays of this panel Not Active means under 50% inhibition at 10 µM
Voltage-gated inwardly rectifying potassium channel KCNH2, sequence (Q12809 whole entry): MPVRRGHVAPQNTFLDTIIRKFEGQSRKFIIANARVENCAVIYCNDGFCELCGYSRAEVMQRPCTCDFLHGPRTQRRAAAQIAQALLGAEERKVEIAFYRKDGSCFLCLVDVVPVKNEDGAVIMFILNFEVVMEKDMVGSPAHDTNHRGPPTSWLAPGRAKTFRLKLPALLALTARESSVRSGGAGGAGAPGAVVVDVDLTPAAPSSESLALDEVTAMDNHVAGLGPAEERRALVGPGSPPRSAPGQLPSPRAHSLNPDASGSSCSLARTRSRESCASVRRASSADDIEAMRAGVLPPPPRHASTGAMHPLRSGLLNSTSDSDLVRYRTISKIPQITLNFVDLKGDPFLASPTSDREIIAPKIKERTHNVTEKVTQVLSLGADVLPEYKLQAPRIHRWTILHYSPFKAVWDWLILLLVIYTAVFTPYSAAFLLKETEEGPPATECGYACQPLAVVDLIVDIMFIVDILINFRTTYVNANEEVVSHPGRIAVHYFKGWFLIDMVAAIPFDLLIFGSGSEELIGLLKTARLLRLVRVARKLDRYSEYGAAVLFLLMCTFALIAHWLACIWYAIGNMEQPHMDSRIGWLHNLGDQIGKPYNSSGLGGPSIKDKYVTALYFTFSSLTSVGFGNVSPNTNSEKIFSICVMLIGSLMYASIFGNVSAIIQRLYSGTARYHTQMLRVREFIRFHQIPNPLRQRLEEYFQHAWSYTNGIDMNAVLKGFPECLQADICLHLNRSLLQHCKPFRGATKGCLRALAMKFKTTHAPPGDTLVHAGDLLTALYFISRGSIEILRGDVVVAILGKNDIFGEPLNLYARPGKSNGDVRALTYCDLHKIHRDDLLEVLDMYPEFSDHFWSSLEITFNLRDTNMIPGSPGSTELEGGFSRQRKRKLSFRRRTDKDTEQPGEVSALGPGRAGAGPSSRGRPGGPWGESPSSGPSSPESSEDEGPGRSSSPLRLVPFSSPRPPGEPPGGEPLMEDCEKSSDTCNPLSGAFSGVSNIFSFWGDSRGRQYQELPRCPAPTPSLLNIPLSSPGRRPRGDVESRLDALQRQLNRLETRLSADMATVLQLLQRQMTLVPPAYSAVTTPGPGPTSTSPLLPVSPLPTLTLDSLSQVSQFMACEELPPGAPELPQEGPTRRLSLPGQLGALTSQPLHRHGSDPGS

Cytochrome P450 2D6, sequence (P10635 whole entry): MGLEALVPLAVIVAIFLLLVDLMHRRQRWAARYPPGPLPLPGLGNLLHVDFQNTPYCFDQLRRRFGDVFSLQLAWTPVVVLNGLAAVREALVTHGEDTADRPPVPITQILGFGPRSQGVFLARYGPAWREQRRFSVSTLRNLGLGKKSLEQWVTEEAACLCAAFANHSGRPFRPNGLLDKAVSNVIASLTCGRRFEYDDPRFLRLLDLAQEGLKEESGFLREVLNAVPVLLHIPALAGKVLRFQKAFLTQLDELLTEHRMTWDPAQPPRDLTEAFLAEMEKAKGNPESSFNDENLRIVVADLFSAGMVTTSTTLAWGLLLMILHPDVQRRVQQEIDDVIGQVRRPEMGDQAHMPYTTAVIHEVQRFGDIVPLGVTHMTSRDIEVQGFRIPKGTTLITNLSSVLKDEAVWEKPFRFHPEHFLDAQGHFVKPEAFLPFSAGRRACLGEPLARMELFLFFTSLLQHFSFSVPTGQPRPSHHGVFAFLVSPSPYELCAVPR
Insulin receptor, sequence (P15127 27-759 limits assumed): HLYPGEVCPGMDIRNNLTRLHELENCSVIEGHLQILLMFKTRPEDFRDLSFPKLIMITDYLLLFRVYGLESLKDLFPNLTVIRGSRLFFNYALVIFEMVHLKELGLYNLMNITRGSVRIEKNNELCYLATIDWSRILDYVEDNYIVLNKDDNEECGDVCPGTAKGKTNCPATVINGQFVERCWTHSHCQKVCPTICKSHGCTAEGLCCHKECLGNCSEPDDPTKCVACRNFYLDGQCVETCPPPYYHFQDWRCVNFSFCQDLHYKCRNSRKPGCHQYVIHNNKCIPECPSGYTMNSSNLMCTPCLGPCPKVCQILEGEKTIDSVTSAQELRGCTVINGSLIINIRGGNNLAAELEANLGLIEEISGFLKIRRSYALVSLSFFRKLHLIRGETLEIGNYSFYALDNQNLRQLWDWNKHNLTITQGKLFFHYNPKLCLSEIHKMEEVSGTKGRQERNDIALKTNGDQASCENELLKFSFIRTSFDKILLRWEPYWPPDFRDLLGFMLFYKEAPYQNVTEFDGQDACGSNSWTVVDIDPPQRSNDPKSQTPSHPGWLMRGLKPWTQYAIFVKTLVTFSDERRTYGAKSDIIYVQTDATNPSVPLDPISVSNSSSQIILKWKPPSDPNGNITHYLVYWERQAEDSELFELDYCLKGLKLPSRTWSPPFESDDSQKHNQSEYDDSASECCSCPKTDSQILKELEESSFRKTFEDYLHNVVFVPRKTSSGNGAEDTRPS
Insulin receptor, sequence (P15127 764-1383 limits assumed): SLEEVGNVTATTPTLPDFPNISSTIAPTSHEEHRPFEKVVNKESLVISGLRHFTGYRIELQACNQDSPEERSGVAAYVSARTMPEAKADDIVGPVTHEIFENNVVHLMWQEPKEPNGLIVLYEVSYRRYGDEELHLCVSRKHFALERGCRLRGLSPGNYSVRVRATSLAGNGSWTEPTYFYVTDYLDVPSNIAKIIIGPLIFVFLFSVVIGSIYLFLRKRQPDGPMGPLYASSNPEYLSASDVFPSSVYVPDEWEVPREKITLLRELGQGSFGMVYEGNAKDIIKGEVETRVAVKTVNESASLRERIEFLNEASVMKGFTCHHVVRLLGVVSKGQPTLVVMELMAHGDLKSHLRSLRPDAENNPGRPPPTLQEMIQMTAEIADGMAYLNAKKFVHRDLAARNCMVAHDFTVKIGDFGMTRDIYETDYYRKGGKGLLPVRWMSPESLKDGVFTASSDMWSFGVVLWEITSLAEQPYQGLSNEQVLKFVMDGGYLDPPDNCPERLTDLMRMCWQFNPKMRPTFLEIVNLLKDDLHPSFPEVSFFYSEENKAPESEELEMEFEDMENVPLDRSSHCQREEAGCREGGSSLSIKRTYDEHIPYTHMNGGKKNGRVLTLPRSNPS

Nc1nc2c(c(=O)[nH]1)N(C=O)C(CNc1ccc(C(=O)N[C@@H](CCC(=O)O)C(=O)O)cc1)CN2 (stereo partly drawn) [LEUCOVORIN]
Not Active: IC50 [1] | Ki [1] | IC50 [2] | IC50 [3] | Ki [3] | IC50 [4] | IC50 [5] | Ki [5] | IC50 [6] | Ki [6] | IC50 [7] | IC50 [8] | Ki [8] | IC50 [9] | Ki [9]

C[C@@H](O)[C@H]1C(=O)N2C(C(=O)O)=C(S[C@@H]3CN[C@H](C(=O)N(C)C)C3)[C@H](C)[C@H]12 [MEROPENEM]
Not Active: IC50 [1] | Ki [1] | IC50 [2] | IC50 [3] | Ki [3] | IC50 [4] | IC50 [5] | Ki [5] | IC50 [6] | Ki [6] | IC50 [7] | IC50 [8] | Ki [8] | IC50 [9] | Ki [9]

CC[C@@H](CO)NC(=O)[C@@H]1C=C2c3cccc4c3c(cn4C)C[C@H]2N(C)C1 [METHYSERGIDE]
Not Active: IC50 [2] | IC50 [4] | IC50 [7] | IC50 [8] | Ki [8] | IC50 [9] | Ki [9]

CCN(CC)CC#CCOC(=O)C(O)(c1ccccc1)C1CCCCC1 (stereo not drawn) [OXYBUTYNIN]
Not Active: IC50 [2] | IC50 [4] | IC50 [7] | IC50 [8] | Ki [8] | IC50 [9] | Ki [9]

O=P(O)(O)C(O)(Cc1cccnc1)P(=O)(O)O [RISEDRONIC ACID]
Not Active: IC50 [1] | Ki [1] | IC50 [2] | IC50 [3] | Ki [3] | IC50 [4] | IC50 [5] | Ki [5] | IC50 [6] | Ki [6] | IC50 [7] | IC50 [8] | Ki [8] | IC50 [9] | Ki [9]

CN(CCOc1ccc(CC2SC(=O)NC2=O)cc1)c1ccccn1 (stereo not drawn) [ROSIGLITAZONE]
Not Active: IC50 [1] | Ki [1] | IC50 [2] | IC50 [3] | Ki [3] | IC50 [4] | IC50 [5] | Ki [5] | IC50 [6] | Ki [6] | IC50 [7] | IC50 [9] | Ki [9]

C=C(C)[C@H]1Cc2c(ccc3c2O[C@@H]2COc4cc(OC)c(OC)cc4[C@@H]2C3=O)O1 [ROTENONE]
Not Active: IC50 [1] | Ki [1] | IC50 [2] | IC50 [3] | Ki [3] | IC50 [4] | IC50 [5] | Ki [5] | IC50 [6] | Ki [6] | IC50 [7] | IC50 [8] | Ki [8] | IC50 [9] | Ki [9]

C[C@]12CC[C@H]3[C@@H](CCC4=CC(=O)CC[C@@]43C)[C@@H]1CC[C@@H]2O [TESTOSTERONE]
Not Active: IC50 [1] | Ki [1] | IC50 [2] | IC50 [3] | Ki [3] | IC50 [4] | IC50 [5] | Ki [5] | IC50 [6] | Ki [6] | IC50 [7] | IC50 [8] | Ki [8]

CCS(=O)(=O)CCn1c([N+](=O)[O-])cnc1C [TINIDAZOLE]
Not Active: IC50 [1] | Ki [1] | IC50 [2] | IC50 [3] | Ki [3] | IC50 [4] | IC50 [5] | Ki [5] | IC50 [6] | Ki [6] | IC50 [7] | IC50 [9] | Ki [9]

O=c1n(CCCN2CCN(c3cccc(Cl)c3)CC2)nc2ccccn12 [TRAZODONE]
Not Active: IC50 [2] | IC50 [4] | IC50 [7] | IC50 [8] | Ki [8] | IC50 [9] | Ki [9]

COc1ccc(CN2CCNCC2)c(OC)c1OC [TRIMETAZIDINE]
Not Active: IC50 [1] | Ki [1] | IC50 [2] | IC50 [3] | Ki [3] | IC50 [4] | IC50 [5] | Ki [5] | IC50 [6] | Ki [6] | IC50 [7] | IC50 [9] | Ki [9]
